Test results published in paper PMC11070402, “New antiproliferative 3-substituted oxindoles inhibiting EGFR/VEGFR-2 and tubulin polymerization” (Molecular Diversity, 2023).
Where two headings read alike, the source gives them in different places.

Legend:
UO-31 = assay: NCI one-dose assay, UO-31; format: cell-based; conditions: Homo sapiens; UO-31; 10 µM single dose, 48 h incubation; read-out: cell growth inhibition % (GI %)
Experimental: (§1) All novel scaffolds 6a–j were carefully selected by the National Cancer Institute (NCI), Bethesda, USA, to elucidate their cytotoxic activity versus 60 human cancer cell lines at 10 µM as a single-dose concentration after a 48 h incubation period.
(§2) National Cancer Institution selected all the synthesized 6a–j (NCI), Bethesda, USA, for in vitro one-dose antitumor assay. The methodology protocol for the NCI anticancer screening was reported in detail elsewhere (http://www.dtp.nci.nih.gov). The anticancer assay was performed in full NCI 60 cell lines extracted from nine tumor cell lines, including leukemia, melanoma, lung, colon, CNS, ovarian, renal, prostate, and breast cancer cell lines.

T-47D = assay: NCI one-dose assay, T-47D; format: cell-based; conditions: Homo sapiens, T47D; T-47D; 10 µM single dose, 48 h incubation; read-out: cell growth inhibition % (GI %)
Experimental: as §1, §2

NCI-H23 = assay: NCI one-dose assay, NCI-H23; format: cell-based; conditions: Homo sapiens; NCI-H23; 10 µM single dose, 48 h incubation; read-out: cell growth inhibition % (GI %)
Experimental: as §1, §2

MCF-7 = assay: NCI one-dose assay, MCF-7; format: cell-based, human; conditions: MCF-7, 10 µM single dose, 48 h incubation
Experimental: as §1, §2

[1] = tested on: HOP-92 (non-small cell lung cancer cell line); assay: NCI one-dose assay, HOP-92; format: cell-based; conditions: Homo sapiens; HOP-92 (Non-Small Cell Lung Cancer), 10 uM single dose; read-out: Growth inhibition %
Experimental: as §1, §2

LOX IMVI = assay: NCI one-dose assay, LOX IMVI; format: cell-based; conditions: Homo sapiens; LOX IMVI; 10 µM single dose, 48 h incubation; read-out: cell growth inhibition % (GI %)
Experimental: as §1, §2

SK-MEL-5 = assay: NCI one-dose assay, SK-MEL-5; format: cell-based; conditions: Homo sapiens; SK-MEL-5; 10 µM single dose, 48 h incubation; read-out: cell growth inhibition % (GI %)
Experimental: as §1, §2

[2] = tested on: 60 human cancer cell lines; assay: NCI one-dose assay against sixty NCI cancer cell lines; format: cell-based
Experimental: as §1, §2

K-562 = assay: NCI one-dose assay, K-562; format: cell-based; conditions: Homo sapiens, K562; K-562; 10 µM single dose, 48 h incubation; read-out: cell growth inhibition % (GI %)
Experimental: as §1, §2

A549/ATCC = assay: NCI one-dose assay, A549/ATCC; format: cell-based; conditions: Homo sapiens, 10 µM single dose, 48 h incubation, read-out: cell growth inhibition % (GI %)
Experimental: as §1, §2

VEGFR-2 (KDR) = biological target: T1, VEGFR-2 (KDR) (Homo sapiens, UniProt P35968); assay: VEGFR-2 kinase assay kit (Kinase-Glo MAX); format: biochemical
T1 construct: purchased
Experimental: The receptor tyrosine kinases, namely EGFR, VEGFR-2, and PDGFR_ẞ Kinases Assay Kits, are designed to measure EGFR, VEGFR-2, and PDGFR_ẞ Kinases’ activities for screening and profiling applications using Kinase-Glo® MAX as a detection reagent. The EGFR, VEGFR-2, and PDGFR_ẞ Kinases Assay Kits come in a convenient 96-well format, with enough purified recombinant EGFR enzyme, EGFR substrate, ATP, and kinase assay buffer for 100 enzyme reactions. The master mixture (25 µl per well) was equipped out of Kinase assay buffer (6 µl), ATP (500 µM, 1 µl), PTK substrate (50x, 1 µl), and water (17 µl) and transferred into each well. […] EGFR, VEGFR-2, and PDGFR_ẞ Kinases were softened on ice. Its tube was spun briefly to recover its full content of the tube. These enzymes were diluted with 1 × Kinase assay buffer to 1 ng/ µl. The reaction was initiated by adding 20 µl of diluted EGFR, VEGFR-2, and PDGFR_ẞ enzymes to the wells designated “Positive Control” and “Test Inhibitor Control.” The plate was incubated at 30 °C for 40 min. After the 40-min reaction, the Kinase-Glo Max (50 µl) reagent was added to each well. The plate was covered with aluminum foil and incubated at room temperature for 15 min, and the luminescence was measured using the microplate reader.

MOLT-4 = assay: NCI one-dose assay, MOLT-4; format: cell-based; conditions: Homo sapiens; MOLT-4; 10 µM single dose, 48 h incubation; read-out: cell growth inhibition % (GI %)
Experimental: as §1, §2

[3] = tested on: MCF-7 (human breast cancer); assay: Cytotoxicity versus MCF-7 cell line (MTT assay); conditions: MCF7, read-out: MCF-7 (IC50 ± SD, uM)
Experimental: IC50 values were recorded using the Boltzman sigmoidal concentration–response curve equation using the nonlinear regression fitting models by GraphPad, Prism version 5 (GraphPad Software Inc., La Jolla, CA). MTT assay for MCF-7 cell lines. Cell line cells were obtained from American Type Culture Collection. Cells were cultured using DMEM media (Invitrogen/Life Technologies) supplemented with 10% FBS (Hyclone), 10 ug/ml of insulin (Sigma), and 1% penicillin–streptomycin. All the other chemicals and reagents were purchased from Sigma or Invitrogen. Cells were seeded in plates (cells density 1.2–1.8 × 10,000 cells/well) in a volume of 100 μl full-growth medium + 100 μl of the tested scaffold per well in a 96-well plate for 24 h before the application of the MTT assay protocol as reported, supplementary information.

[4] = tested on: SNB-75 cells (CNS cancer cell line); assay: NCI one-dose assay, SNB-75; format: cell-based; conditions: Homo sapiens; SNB-75 (CNS Cancer), 10 uM single dose; read-out: Growth inhibition %
Experimental: as §1, §2

SR = assay: NCI one-dose assay, SR; format: cell-based; conditions: Homo sapiens; SR; 10 µM single dose, 48 h incubation; read-out: cell growth inhibition % (GI %)
Experimental: as §1, §2

T1 sequence (P35968 20-1356): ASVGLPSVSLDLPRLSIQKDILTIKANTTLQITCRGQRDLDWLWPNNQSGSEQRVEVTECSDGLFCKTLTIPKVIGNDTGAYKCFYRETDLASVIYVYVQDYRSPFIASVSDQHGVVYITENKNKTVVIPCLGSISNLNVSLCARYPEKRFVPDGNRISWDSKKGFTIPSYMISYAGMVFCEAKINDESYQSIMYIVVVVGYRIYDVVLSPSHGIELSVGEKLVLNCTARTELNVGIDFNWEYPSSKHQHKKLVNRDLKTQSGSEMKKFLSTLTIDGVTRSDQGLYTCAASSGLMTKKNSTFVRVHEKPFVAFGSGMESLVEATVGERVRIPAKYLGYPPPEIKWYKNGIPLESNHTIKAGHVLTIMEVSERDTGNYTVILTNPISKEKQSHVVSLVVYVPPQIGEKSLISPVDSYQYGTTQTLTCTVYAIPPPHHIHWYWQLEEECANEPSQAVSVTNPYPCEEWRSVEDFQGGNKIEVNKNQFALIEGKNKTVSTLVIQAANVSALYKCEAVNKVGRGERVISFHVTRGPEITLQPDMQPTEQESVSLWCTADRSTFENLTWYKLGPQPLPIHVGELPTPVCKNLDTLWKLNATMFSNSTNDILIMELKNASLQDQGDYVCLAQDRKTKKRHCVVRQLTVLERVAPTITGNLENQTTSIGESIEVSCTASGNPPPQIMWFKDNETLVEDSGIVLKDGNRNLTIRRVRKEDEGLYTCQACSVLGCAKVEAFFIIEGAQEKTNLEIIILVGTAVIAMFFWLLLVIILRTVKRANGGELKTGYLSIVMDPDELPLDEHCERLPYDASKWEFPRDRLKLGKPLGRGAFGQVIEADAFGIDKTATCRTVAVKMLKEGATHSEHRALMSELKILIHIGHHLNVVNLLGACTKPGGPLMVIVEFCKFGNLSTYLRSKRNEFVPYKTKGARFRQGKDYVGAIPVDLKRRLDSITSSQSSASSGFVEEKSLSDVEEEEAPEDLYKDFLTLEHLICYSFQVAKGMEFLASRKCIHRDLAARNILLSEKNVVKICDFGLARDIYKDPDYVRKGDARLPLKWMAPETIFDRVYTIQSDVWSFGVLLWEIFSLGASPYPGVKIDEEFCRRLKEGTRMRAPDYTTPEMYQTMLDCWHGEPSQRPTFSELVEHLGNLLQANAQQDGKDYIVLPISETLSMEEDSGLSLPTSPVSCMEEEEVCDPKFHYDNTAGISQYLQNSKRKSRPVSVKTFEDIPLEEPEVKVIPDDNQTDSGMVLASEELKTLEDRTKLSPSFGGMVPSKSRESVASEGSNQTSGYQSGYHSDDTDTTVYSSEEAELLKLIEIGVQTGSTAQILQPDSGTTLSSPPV

O=C1Nc2ccccc2C1=Cc1ccc(OCC(=O)c2ccc(Br)cc2)cc1 [Compound 6f, 3-{4-[2-(4-Bromophenyl)-2-oxoethoxy]benzylidene}indolin-2-one]
inhibition at 10 µM (UO-31): 51.5% | inhibition at 10 µM (T-47D): 53% | inhibition at 10 µM (NCI-H23): 49.1% | inhibition at 10 µM (MCF-7; Homo sapiens, MCF7, 48 h, read-out: cell growth inhibition % (GI %)): 72.6% | cell growth inhibition % (GI %) (MCF-7): 70.30% | inhibition at 10 µM [1]: 24.5% | inhibition at 10 µM (LOX IMVI): 71.1% | inhibition at 10 µM (SK-MEL-5): 71.1% | inhibition at 10 µM ([2]; 786-0 (Renal Cancer), 10 uM single dose, read-out: Growth inhibition %): 10.2% | inhibition at 10 µM ([2]; ACHN (Renal Cancer), 10 uM single dose, read-out: Growth inhibition %): 30% | inhibition at 10 µM ([2]; BT-549 (Breast Cancer), 10 uM single dose, read-out: Growth inhibition %): 43.4% | inhibition at 10 µM ([2]; CAKI-1 (Renal Cancer), 10 uM single dose, read-out: Growth inhibition %): 32.2% | inhibition at 10 µM ([2]; CCRF-CEM (Leukemia), 10 uM single dose, read-out: Growth inhibition %): 41.8% | inhibition at 10 µM ([2]; COLO 205 (Colon Cancer), 10 uM single dose, read-out: Growth inhibition %): 34.1% | inhibition at 10 µM ([2]; DU-145 (Prostate Cancer), 10 uM single dose, read-out: Growth inhibition %): 14.4% | inhibition at 10 µM ([2]; EKVX (Non-Small Cell Lung Cancer), 10 uM single dose, read-out: Growth inhibition %): 34.4% | inhibition at 10 µM ([2]; HCC-2998 (Colon Cancer), 10 uM single dose, read-out: Growth inhibition %): 14.9% | inhibition at 10 µM ([2]; HCT-15 (Colon Cancer), 10 uM single dose, read-out: Growth inhibition %): 54.6% | inhibition at 10 µM ([2]; HCT-116 (Colon Cancer), 10 uM single dose, read-out: Growth inhibition %): 44.6% | inhibition at 10 µM ([2]; HL-60(TB) (Leukemia), 10 uM single dose, read-out: Growth inhibition %): 59.6% | inhibition at 10 µM ([2]; HS 578T (Breast Cancer), 10 uM single dose, read-out: Growth inhibition %): 15.6% | inhibition at 10 µM ([2]; HT-29, HT29 (Colon Cancer), 10 uM single dose, read-out: Growth inhibition %): 17.2% | inhibition at 10 µM ([2]; IGROV-1, IGROV1 (Ovarian Cancer), 10 uM single dose, read-out: Growth inhibition %): 21.7% | inhibition at 10 µM ([2]; KM12 (Colon Cancer), 10 uM single dose, read-out: Growth inhibition %): 22.7% | inhibition at 10 µM ([2]; M14 (Melanoma), 10 uM single dose, read-out: Growth inhibition %): 26.9% | inhibition at 10 µM ([2]; MALME-3M (Melanoma), 10 uM single dose, read-out: Growth inhibition %): 19% | inhibition at 10 µM ([2]; MDA-MB-231, read-out: Growth inhibition %): 17.8% | inhibition at 10 µM ([2]; MDA-MB-435 (Melanoma), 10 uM single dose, read-out: Growth inhibition %): 29.5% | inhibition at 10 µM ([2]; MDA-MB-468 (Breast Cancer), 10 uM single dose, read-out: Growth inhibition %): 47.6% | inhibition at 10 µM ([2]; NCI-H226 (Non-Small Cell Lung Cancer), 10 uM single dose, read-out: Growth inhibition %): 28.4% | inhibition at 10 µM ([2]; NCI-H322M (Non-Small Cell Lung Cancer), 10 uM single dose, read-out: Growth inhibition %): 12.5% | inhibition at 10 µM ([2]; NCI-H460 (Non-Small Cell Lung Cancer), 10 uM single dose, read-out: Growth inhibition %): 41.5% | inhibition at 10 µM ([2]; NCI-H522 (Non-Small Cell Lung Cancer), 10 uM single dose, read-out: Growth inhibition %): 38.6% | inhibition at 10 µM ([2]; OVCAR-3 (Ovarian Cancer), 10 uM single dose, read-out: Growth inhibition %): 22.5% | inhibition at 10 µM ([2]; OVCAR-4 (Ovarian Cancer), 10 uM single dose, read-out: Growth inhibition %): 41.8% | inhibition at 10 µM ([2]; OVCAR-8 (Ovarian Cancer), 10 uM single dose, read-out: Growth inhibition %): 30.4% | inhibition at 10 µM ([2]; PC-3 (Prostate Cancer), 10 uM single dose, read-out: Growth inhibition %): 37.6% | inhibition at 10 µM ([2]; RPMI-8226 (Leukemia), 10 uM single dose, read-out: Growth inhibition %): 50.8% | inhibition at 10 µM ([2]; RXF 393 (Renal Cancer), 10 uM single dose, read-out: Growth inhibition %): 32.4% | inhibition at 10 µM ([2]; SF-295 (CNS Cancer), 10 uM single dose, read-out: Growth inhibition %): 41.4% | inhibition at 10 µM ([2]; SF-539 (CNS Cancer), 10 uM single dose, read-out: Growth inhibition %): 18.5% | inhibition at 10 µM ([2]; SK-MEL-2 (Melanoma), 10 uM single dose, read-out: Growth inhibition %): 27.6% | inhibition at 10 µM ([2]; SK-MEL-28 (Melanoma), 10 uM single dose, read-out: Growth inhibition %): 19.9% | inhibition at 10 µM ([2]; SN12C (Renal Cancer), 10 uM single dose, read-out: Growth inhibition %): 37.3% | inhibition at 10 µM ([2]; SNB-19 (CNS Cancer), 10 uM single dose, read-out: Growth inhibition %): 20.4% | inhibition at 10 µM ([2]; SW-620 (Colon Cancer), 10 uM single dose, read-out: Growth inhibition %): 21.9% | inhibition at 10 µM ([2]; U-251, U251 (CNS Cancer), 10 uM single dose, read-out: Growth inhibition %): 28.5% | inhibition at 10 µM ([2]; UACC-62 (Melanoma), 10 uM single dose, read-out: Growth inhibition %): 47.4% | inhibition at 10 µM ([2]; UACC-257 (Melanoma), 10 uM single dose, read-out: Growth inhibition %): 26.4% | inhibition at 10 µM (K-562): 72.2% | inhibition at 10 µM (A549/ATCC): 41.6% | %inh VEGFR-2 (VEGFR-2 (KDR); conc 0.01 (unit not given)): 12.36% | %inh VEGFR-2 (VEGFR-2 (KDR); conc 0.1 (unit not given)): 36.13% | %inh VEGFR-2 (VEGFR-2 (KDR); conc 1 (unit not given)): 73.94% | %inh VEGFR-2 (VEGFR-2 (KDR); conc 10 (unit not given)): 88.74% | IC50 (VEGFR-2 (KDR); read-out: VEGFR-2 inhibition (IC50 ± SD)): 5.75 ± 0.011 µM | inhibition at 10 µM (MOLT-4): 91.5% | IC50 [3]: 14.8 ± 0.47 µM | inhibition at 10 µM [4]: 20.4% | inhibition at 10 µM (SR): 63.7%
